Starred links: 1 amine or outer side, 2 acyl side, 3 side chain; linkers in the order of their positions; H or OH if unused. Residues, ends and D or L forms follow the SMILES beside them. Groups on a side chain read outwards from the residue. *: point of attachment. Glutaryl = O=C(CCCC(=O)[*:2])[*:1]; X1 = CCCC/C=C\CCCCCCCC=NN*; NHNH2 = NN*
Assays:
[1] = test system: all the cell lines except for HepG2
mice = assay: In vivo FLuc mRNA delivery, i.v. injection, concentrated formulation, BLI; settings: 125 μM
Method: Amphiphile stock solutions were prepared in DMSO as described above, but in this case, the amphiphile was contacted directly with the solution of nucleic acid cargo in a suitable buffer, such as PBS, or phosphate buffer enriched with inorganic salts, without any predilution step of the amphiphile's DMSO solution in a suitable aqueous buffer. Delivery efficiency of mRNA by i.v. administration route was determined by bioluminescence imaging (BLI). […] Luciferase expression was evaluated over 24 h, starting at 1 h after the administration of mRNA complexes. After that time, mice were sacrificed, and each organ was analysed individually using bioluminescence imaging (BLI) for quantification of the expression. […] Transfection results with the optimal volume ratios (125 or 250 μM final amphiphile concentration) and expression quantification in organs for candidates 7.2 DO, 7.2 M, 9.2 DO and 9.2 M are presented in FIGS. 12A, 12B, 11A, 11B, 13A, 13B, 20A and 20B respectively.
FIGS. 19A and 19B show in vivo transfection experiments in mice using amphiphiles comprising peptide 13.2 with oleyl aldehyde (13.2 O). These figures show representative bioluminescence images of mice and the extracted organs following i.v. (intravenous) injection of FLuc mRNA/amphiphile 13.2 O complexes (125 and 250 μM of 13.2 O were used, as indicated) at different times (1 h, 4 h, 7 h and 24 h). […]

[2] = test system: chicken embryo fibroblasts (CEF); assay: EGFP pDNA transfection in primary chicken embryo fibroblasts; type: cell-based
Text: FIG. 5 EGFP pDNA transfection efficacy (% GFP-positive cells) with amphiphile comprising 7.3(Leu-His) peptide and myristoleyl aldehyde (7.3(L-H) M) at different concentrations, compared with Lipofectamine 2000 (LF) and TransIT-LT1 Transfection Reagent (Mirus) in CEF (chicken embryo fibroblasts).
The amphiphile obtained by combining the peptide 7.3(Leu-His) with myristoleyl aldehyde (7.3(Leu-His) M) was used to deliver EGFP pDNA in primary chicken embryo fibroblasts (CEF, obtained from 9-10 day-old chicken embryos), which are non-immortal cells difficult to transfect. The transfection efficiency of amphiphile 7.3(Leu-His) M was compared to that of Lipofectamine® 2000 (LF) and TransIT-LT1 Transfection Reagent (Mirus).

Hela cells = assay: EGFP pDNA transfection, flow cytometry, HeLa; type: cell-based; settings: HeLa seeded at 60,000, 120,000 and 240,000 cells/mL
Method: For cytometry-based assays, the delivery of pDNA encoding for the expression of eGFP gene (GFP) in HeLa and A549 cells was performed. Amphiphilic molecule stock solutions in DMSO were diluted with DMEM and freshly mixed with pDNA stock solutions in DMEM prior to transfection experiments, to afford several complexes at different amphiphile concentration (2.5-10 μM) while maintaining a constant final pDNA concentration of 2 ng/μL. The mixture was shaken for 30 min at room temperature before the addition to the cells. The cell medium was aspirated, and cells were washed twice with PBS. Finally, 50 μL of the complex's solution were added to the cells and incubated for 4 h. After the incubation, the medium was replaced by 100 μL of fresh DMEM supplemented with 10% FBS. 72 hours after transfection the DMEM was removed, and cells were cultured for 5 min with 100 μL of trypsin. Then, 100 μL of PBS (supplemented with 2% FBS and 1% EDTA 0.5M) were added. Finally, the GFP fluorescent measurement was performed in a flow cytometer and the percentage of GFP positive (i.e., transfected cells) were quantified. Amphiphile transfection efficiency was compared to control, non-treated cells and all experiments were done in triplicate.
7.3(Leu-His) peptide with D-amino acids was synthesized. This peptide would be more resistant to the degradation by proteases. The inventors studied the delivery of EGFP pDNA using amphiphiles comprising either enantiomer (either 7.3(Leu-His) peptide with D-amino acids or with L-amino acids) and myristoleyl aldehyde to compare their transfecting activity in HeLa cells. Number of EGFP expressing cells was measured by flow cytometry.
Experiments in cultured cells at different confluence levels were performed to check the effect of this parameter on the activity of amphiphile 7.3(Leu-His) M. As described above, transfection experiments are usually performed on cells seeded the day before at a cell concentration of 60,000 cell/mL (100 μL/well). In the current example, transfection experiments with EGFP pDNA are performed in HeLa cells two and four times more concentrated (120,000 and 240,000 cells/mL, respectively). […] However, for this experiment more volume of complex amphiphile/pDNA was needed as the cell concentration was increased (50, 100 and 200 μL of complexes were used for 60,000, 120,000 and 240,000 cells/mL, respectively).
Several structural modifications were performed on the peptide 7.3(Leu-His). The delivery of EGFP pDNA in HeLa cells using amphiphiles comprising these peptides and myristoleyl aldehyde was tested. The modifications consisted of the modification in the order of the amino acids, the replacement of 1 to 3 K* residues for O* residues and the addition of 1 or 2 R residues on the N-terminus. […]

HeLa-EGFP cells = assay: Cas9 ribonucleoprotein delivery, flow cytometry of EGFP negative cells; type: cell-based
Method: FIG. 2 Percentage of editing (in bars, left axis) in HeLa-EGFP cells incubated with Cas9 ribonucleoprotein with an EGFP-targeting gRNA using the amphiphiles comprising 7.3(Leu-His) peptide with myristoleyl, palmitoleyl or petroselinyl aldehydes. After 3 days, EGFP negative cells (bars; left axis) and cell concentration (dots; right axis) were quantified by flow cytometry. ([Cas9]=50 nM, amphiphiles concentration in μM).
The inventors evaluated the intracellular delivery of Cas9 ribonucleoprotein with a gRNA targeting EGFP into HeLa-EGFP cells, using an amphiphilic molecule comprising peptide 7.3(Leu-His) combined with myristoleyl, palmitoleyl or petroselinyl aldehydes. After 3 days, EGFP negative cells were quantified by flow cytometry.

| SMILES | IC50 [1] | effect of DMSO:aqueous volume ratio on bioluminescence (mice; ratios 1:100, 1:200, 1:400) | biodistribution of bioluminescence (mice; concentrated formulation, 5 μg mRNA/mouse) | transfection efficiency relative to Lipofectamine 2000 (LF) [2] | transfection efficiency relative to TransIT-LT1 Transfection Reagent (Mirus) [2] | EGFP pDNA transfection at different cell confluence (Hela cells) | % of editing (EGFP negative cells) (HeLa-EGFP cells; Cas9 50 nM, flow cytometry after 3 days, amphiphile tails myristoleyl or palmitoleyl) | concentration of cells relative to Lipofectamine (HeLa-EGFP cells; after 3 days, myristoleyl or palmitoleyl aldehydes, on average) |
| --- | --- | --- | --- | --- | --- | --- | --- | --- |
| CCCC/C=C\CCCCCCCC=NNC(=O)CCCC(=O)NCCCC[C@H](NC(=O)[C@H](CCCCNC(=O)CCCC(=O)NN=CCCCCCCC/C=C\CCCC)NC(=O)[C@H](CCCNC(=N)N)NC(=O)[C@H](Cc1c[nH]cn1)NC(=O)[C@H](CCCCNC(=O)CCCC(=O)NN=CCCCCCCC/C=C\CCCC)NC(=O)[C@H](CCCNC(=N)N)NC(C)=O)C(=O)N[C@@H](Cc1c[nH]cn1)C(N)=O [7.3(Leu-His) M] (Ac-RK([Glutaryl-X1])HRK([Glutaryl-X1])K([Glutaryl-X1])H-NH2) | 13 to 24 µM | 1:100 (DMSO:aqueous) ratios showed the highest bioluminescence values, with up to one order of magnitude luminescence enhancement as compared to 1:200 ratio | a preferred spleen biodistribution of the bioluminescence was observed | two times better | up to five times better | performs equally well at all cell concentrations tested | – | – |
| CC(=O)N[C@@H](CCCNC(=N)N)C(=O)N[C@@H](CCCCNC(=O)CCCC(=O)NN)C(=O)N[C@@H](Cc1c[nH]cn1)C(=O)N[C@@H](CCCNC(=N)N)C(=O)N[C@@H](CCCCNC(=O)CCCC(=O)NN)C(=O)N[C@@H](CCCCNC(=O)CCCC(=O)NN)C(=O)N[C@@H](Cc1c[nH]cn1)C(N)=O [7.3(L-H), Ac-RK*HRK*K*H-NH2] (Ac-RK([Glutaryl-NHNH2])HRK([Glutaryl-NHNH2])K([Glutaryl-NHNH2])H-NH2) | – | – | – | – | – | – | 70% | three times higher |
